Measured values: patent publication US20110053916A1 (Vertex Pharmaceuticals Incorporated, priority 2009, published 2011)

Assays:
PknB = target: T1, PknB (Mycobacterium tuberculosis, UniProt P9WI81); assay: biochemical; parameters: species or system M. tuberculosis; details: 3 nM PknB, 6 uM GarA, 3 μM ATP, 30 min, competitive tight-binding fit, several symbols in a cell = repeat determinations; for Ki: read-out: Ki Values
T1 construct: made in house

[1] = test system: Mycobacterium tuberculosis H37Ra; assay: Mycobacterium tuberculosis growth inhibition assay (microtiter dilution, resazurin reduction); format: cell-based; details: 7H9 broth, 9 days + 24 h resazurin, lowest concentration inhibiting resazurin reduction by >70%, several symbols in a cell = repeat determinations
Procedure: Compounds were screened for their ability to inhibit the growth of Mycobacterium tuberculosis H37Ra using a standard microtiter dilution method with reduction of the dye resazurin as an indicator of growth. The growth assay was carried out in standard Mycobacterium liquid growth medium, 7H9Broth (BD Biosciences, Franklin Lakes, N.J.) supplemented with 10% ADC enrichment (BD Biosciences, Franklin Lakes, N.J.). The medium was inoculate with ˜1×10^6 cells/milliliter of Mycobacterium tuberculosis H37Ra grown on a the surface of a growth medium solid medium (7H11 agar [BD Biosciences, Franklin Lakes, N.J.] supplemented with 10% OADC enrichment [BD Biosciences, Franklin Lakes, N.J.]).
Two-fold serial dilutions (either 7 or 11-step series) of test compounds in DMSO were dispensed into 96-well assay plates (sterile, black sided, clear bottom wells) in a volume of 1 microliter. One microliter of DMSO was dispensed into a control well at the end of each series. One-hundred microliters of the bacterial cell suspension in growth medium was dispensed into each test well containing a DSMO solution of compound. The assay plates were covered with a fitted lid and incubated at 37° C. in a humidified chamber for 9 days. On the ninth day 30 microliters of a 0.01% solution of resazurin (Sigma Chemical Co., St. Louis, Mo.) in distilled water was added to each well and the baseline fluorescence of resazurin was determined by measuring well fluorescence at an excitation wavelength of 492 nm and an emission wavelength of 595 nm on a Spectrafluor Plus (Tecan, Durham, N.C.) instrument. The assay plates were returned to the incubation chamber for 24 hours. After 24 hours, the fluorescence of the wells (resulting from the reduction of resazurin dye) was measured at an excitation wavelength of 492 nm and an emission wavelength of 595 nm on the Spectrafluor Plus instrument. The minimum inhibitory concentration (MIC) was called as the lowest concentration of compound that inhibited the reduction of resazurin by >70%, as compared to the DMSO (untreated) control wells. MIC values are represented as the following values: • A* <1.6 μM • A 1.6 μM<12.5 μM • B** 12.5 μM-25.0 μM • B* 25.0 μM-50.0 μM • B 50.0 μM-100.0 μM • C >100.0 μM

T1 sequence (P9WI81 whole entry): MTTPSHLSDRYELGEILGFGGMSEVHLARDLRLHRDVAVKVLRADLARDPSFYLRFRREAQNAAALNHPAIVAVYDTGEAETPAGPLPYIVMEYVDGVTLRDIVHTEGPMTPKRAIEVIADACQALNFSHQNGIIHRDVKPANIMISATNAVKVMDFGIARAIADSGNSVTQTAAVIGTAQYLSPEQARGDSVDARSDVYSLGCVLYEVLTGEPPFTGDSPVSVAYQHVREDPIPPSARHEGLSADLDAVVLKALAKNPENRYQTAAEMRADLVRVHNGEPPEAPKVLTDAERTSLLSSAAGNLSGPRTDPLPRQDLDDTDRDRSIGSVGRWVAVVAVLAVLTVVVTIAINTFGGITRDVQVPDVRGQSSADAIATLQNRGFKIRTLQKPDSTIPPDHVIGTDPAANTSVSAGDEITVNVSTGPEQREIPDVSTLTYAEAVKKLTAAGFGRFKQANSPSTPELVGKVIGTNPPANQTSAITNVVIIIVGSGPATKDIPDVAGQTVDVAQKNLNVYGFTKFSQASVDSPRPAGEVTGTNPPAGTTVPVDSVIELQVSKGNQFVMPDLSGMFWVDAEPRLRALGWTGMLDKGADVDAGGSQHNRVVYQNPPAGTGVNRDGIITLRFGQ

| SMILES | Ki (PknB) [nM] | MIC values [1] | Ki Values (PknB) |
| --- | --- | --- | --- |
| CNS(=O)(=O)c1ccc(-c2ncc(F)c(Nc3cc(C4CC4)[nH]n3)n2)s1 [Compound 43, 5-[4-[(5-cyclopropyl-1H-pyrazol-3-yl)amino]-5-fluoro-pyrimidin-2-yl]-N-methyl-thiophene-2-sulfonamide] | 1 to 10 | B++ |  |
| C#Cc1cnc(-c2ccc([C@H](O)CCC)s2)nc1Nc1cc(C2CC2)n[nH]1 [Compound 215, 1-[5-[4-[(5-cyclopropyl-2H-pyrazol-3-yl)amino]-5-ethynyl-pyrimidin-2-yl]-2-thienyl]butan-1-ol] |  | B++ | A**, A**, A* |
| Oc1ccc(-c2ncc(Cl)c(Nc3cc(C4CC4)[nH]n3)n2)cc1 [Compound 126, 4-[5-chloro-4-[(5-cyclopropyl-1H-pyrazol-3-yl)amino]-pyrimidin-2-yl]phenol] | 10 to 50 | B++, B+ |  |
| OCc1ccc(-c2ncc(Cl)c(Nc3cc(C4CC4)[nH]n3)n2)s1 [Compound 25, [5-[5-chloro-4-[(5-cyclopropyl-1H-pyrazol-3-yl)amino]-pyrimidin-2-yl]-2-thienyl]methanol] | 10 to 50 | B+ |  |
| CN(C)S(=O)(=O)c1ccc(-c2ncc(Cl)c(Nc3cc(C4CC4)[nH]n3)n2)s1 [Compound 74, 5-[5-chloro-4-[(5-cyclopropyl-1H-pyrazol-3-yl)amino]-pyrimidin-2-yl]-N,N-dimethyl-thiophene-2-sulfonamide] | 1 to 10 | A, B++, C |  |
| CC(=O)OC/C=C/c1cnc(-c2ccccc2)nc1Nc1cc(C2CC2)[nH]n1 [Compound 81, (E)-3-(4-(5-cyclopropyl-1H-pyrazol-3-ylamino)-2-phenylpyrimidin-5-yl)allyl acetate] | 100 to 500 | B++, B+ |  |
| CC(C)(C)NS(=O)(=O)c1ccc(-c2nccc(Nc3cc(C4CC4)[nH]n3)n2)cn1 [Compound 300, 5-[4-[(5-cyclopropyl-1H-pyrazol-3-yl)amino]pyrimidin-2-yl]-N-tert-butyl-pyridine-2-sulfonamide] | 50 to 100 | B+ |  |
| CNS(=O)(=O)c1ccc(-c2ncc(C)c(Nc3cc(C4CC4)[nH]n3)n2)s1 [Compound 33, 5-[4-[(5-cyclopropyl-1H-pyrazol-3-yl)amino]-5-methyl-pyrimidin-2-yl]-N-methyl-thiophene-2-sulfonamide] | 10 to 50 | B+ |  |
| Nc1ccc(Nc2nccc(Nc3cc(C4CC4)n[nH]3)n2)cc1 [Compound 80, N-(4-aminophenyl)-N′-(5-cyclopropyl-2H-pyrazol-3-yl)-pyrimidine-2,4-diamine] |  | B, C | A, B** |
| O=S(=O)(c1ccc(-c2ncc(Cl)c(Nc3cc(C4CC4)[nH]n3)n2)s1)n1cccc1 [Compound 307, 5-chloro-N-(5-cyclopropyl-1H-pyrazol-3-yl)-2-(5-pyrrol-1-ylsulfonyl-2-thienyl)-pyrimidin-4-amine] | 10 to 50 | B+ |  |
| Cc1cnc(-c2ccc(CO)s2)nc1Nc1cc(C2CC2)[nH]n1 [Compound 36, [5-[4-[(5-cyclopropyl-1H-pyrazol-3-yl)amino]-5-methyl-pyrimidin-2-yl]-2-thienyl]methanol] | 50 to 100 | B++, B+ |  |
| CS(=O)(=O)c1ccc(Nc2nccc(Nc3cc(C4CC4)[nH]n3)n2)cc1 [Compound 94, N′-(5-cyclopropyl-2H-pyrazol-3-yl)-N-(4-methylsulfonylphenyl)-pyrimidine-2,4-diamine] | 1 to 10 | B++, B+ |  |
| C[C@@H](O)c1ccc(-c2ncc(Cl)c(Nc3cc(C4CC4)[nH]n3)n2)s1 (stereo in doubt) [Compound 133, 1-[5-[5-chloro-4-[(5-cyclopropyl-1H-pyrazol-3-yl)amino]-pyrimidin-2-yl]-2-thienyl]ethanol] |  | B++ | A**, A* |
| CS(=O)(=O)Nc1ccc(-c2ncc(Cl)c(Nc3cc(C4CC4)[nH]n3)n2)cc1 [Compound 105, N-[4-[5-chloro-4-[(5-cyclopropyl-1H-pyrazol-3-yl)amino]pyrimidin-2-yl]phenyl]methanesulfonamide] | 10 to 50 | B+ |  |
| O=C(O)c1cccc(Nc2nccc(Nc3cc(C4CC4)n[nH]3)n2)c1 [Compound 63, 3-[[4-[(5-cyclopropyl-2H-pyrazol-3-yl)amino]pyrimidin-2-yl]amino]benzoic acid] | > 4000 | B+ |  |
| O=[N+]([O-])c1ccc(-c2ncc(Cl)c(Nc3cc(C4CC4)[nH]n3)n2)s1 [Compound 203, 5-Chloro-N-(5-cyclopropyl-1H-pyrazol-3-yl)-2-(5-nitrothiophen-2-yl)pyrimidin-4-amine] | 1 to 10 | A+, A |  |
| CC(=O)OCCc1cnc(-c2ccc(S(N)(=O)=O)s2)nc1Nc1cc(C2CC2)[nH]n1 [Compound 313, 2-(4-(5-cyclopropyl-1H-pyrazol-3-ylamino)-2-(5-sulfamoylthiophen-2-yl)pyrimidin-5-yl)ethyl acetate] | 10 to 50 | A+ |  |
| O=S(=O)(NCCO)c1ccc(-c2ncc(Cl)c(Nc3cc(C4CC4)[nH]n3)n2)s1 [Compound 86, 5-[5-chloro-4-[(5-cyclopropyl-1H-pyrazol-3-yl)amino]-pyrimidin-2-yl]-N-(2-hydroxyethyl)thiophene-2-sulfonamide] | 1 to 10 | B++ |  |
| CC(C)(C)NS(=O)(=O)c1ccc(-c2ncc(Br)c(Nc3cc(C4CC4)[nH]n3)n2)s1 [Compound 170, 5-[5-bromo-4-[(5-cyclopropyl-1H-pyrazol-3-yl)amino]-pyrimidin-2-yl]-N-tert-butyl-thiophene-2-sulfonamide] |  | B+ | A*, A |
| COCCNS(=O)(=O)c1ccc(-c2ncc(Cl)c(Nc3cc(C4CC4)[nH]n3)n2)s1 [Compound 88, 5-(5-chloro-4-(5-cyclopropyl-1H-pyrazol-3-ylamino)pyrimidin-2-yl)-N-(2-methoxyethyl)thiophene-2-sulfonamide] | 10 to 50 | B+, C |  |
| C#Cc1cnc(-c2ccc([C@H](O)C(C)C)s2)nc1Nc1cc(C2CC2)n[nH]1 [Compound 214, 1-[5-[4-[(5-cyclopropyl-2H-pyrazol-3-yl)amino]-5-ethynyl-pyrimidin-2-yl]-2-thienyl]-2-methyl-propan-1-ol] |  | B++ | A**, A**, A* |
| O=[N+]([O-])c1ccc(-c2ncc(Cl)c(Nc3cc(C4CC4)[nH]n3)n2)o1 [Compound 222, 5-chloro-N-(5-cyclopropyl-1H-pyrazol-3-yl)-2-(5-nitrofuran-2-yl)pyrimidin-4-amine] | 1 to 10 | A+, A |  |
| CCCc1cnc(N2CCCCC2)nc1Nc1cc(C2CC2)[nH]n1 [Compound 66, N-(5-cyclopropyl-1H-pyrazol-3-yl)-2-(1-piperidyl)-5-propyl-pyrimidin-4-amine] | 1000 to 2000 | B+ |  |
| CC(C)(C)NS(=O)(=O)c1ccc(-c2ccc(N)c(Nc3cc(C4CC4)n[nH]3)n2)s1 [Compound 273, 5-[5-amino-6-[(5-cyclopropyl-2H-pyrazol-3-yl)amino]-2-pyridyl]-N-tert-butyl-thiophene-2-sulfonamide] | 10 to 50 | B+ |  |
| Cc1cc(Nc2nc(-c3ccc(S(N)(=O)=O)s3)ncc2Cl)n[nH]1 [Compound 224, 5-[5-chloro-4-[(5-methyl-1H-pyrazol-3-yl)amino]-pyrimidin-2-yl]thiophene-2-sulfonamide] | 1 to 10 | B++ |  |
| NS(=O)(=O)c1ccc(-c2ncc(CO)c(Nc3cc(C4CC4)n[nH]3)n2)s1 [Compound 171, 5-(4-(5-cyclopropyl-1H-pyrazol-3-ylamino)-5-(hydroxymethyl)pyrimidin-2-yl)thiophene-2-sulfonamide] |  | B++ | A, B**, B** |
| Cc1nc(-c2ccc(S(N)(=O)=O)s2)nc(Nc2cc(C3CC3)[nH]n2)c1Cl [Compound 266, 5-[5-chloro-4-[(5-cyclopropyl-1H-pyrazol-3-yl)amino]-6-methyl-pyrimidin-2-yl]thiophene-2-sulfonamide] | 1 to 10 | A+, A, A, C |  |
